The source of these data is publication PMC11181322, “Copper(II) Complexes with Isomeric Morpholine-Substituted 2-Formylpyridine Thiosemicarbazone Hybrids as Potential Anticancer Drugs Inhibiting Both Ribonucleotide Reductase and Tubulin Polymerization: The Morpholine Position Matters” (Journal of Medicinal Chemistry, 2024).

Assay [1] concerns tubulin. As to the kind of experiment: Inhibition of [3H]colchicine binding to tubulin. The following applies: for inhibition of colchicine binding % inhibition ± SD: tubulin 0.5 μM, colchicine 5 μM.
In assay [2] the test system is MES-SA cells. As to the kind of experiment: dNTP pools in MES-SA cell extracts. The following applies: at both concentrations (10 and 25 μM), 24 h. In kind it is cell-based, human. The source says: RNR reduces NDPs to their corresponding deoxy derivatives (dNDPs), which are further converted into dNTPs.[77] Therefore, we investigated the effect of the most toxic proligand H2L^6 and its copper(II) complex 6 on cellular dNTP levels, using Triapine as a control. […] Triapine also elicits a dATP pool decrease while increasing the pools of the three other dNTP species. Decreasing the dATP pool to zero can give rise to the observed cytotoxic effect upon treatment with Triapine. Complex 6 seems to affect dNTP pools by a more complex mechanism, which is nevertheless consistent with R2 inhibition.[79]
Figure 8 Measurement of dNTP pools in MES-SA cell extracts following a 24 h treatment with proligand H2L^6, complex 6, or Triapine at the indicated concentrations. Three independent experiments were performed; error bars represent standard error; stars indicate significant changes compared to the respective control (Ctrl) at p < 0.05.
After a 24 h incubation with or without drugs, MES-SA cells were washed twice with PBS and trypsinized for 5 min. […] The pellet containing dNTPs was redissolved in 50 μL of RNase-free water and stored at −20 °C. dNTP-containing samples were measured by a nucleotide incorporation-based fluorescent method.[97] We used a long synthetic oligonucleotide (197 nt) as a template, which contains a dNTP-detection site, the sole complementary base to that of the dNTP to be quantified directly adjacent to the annealed primer. […] In addition to the limiting amount of dNTP to be quantified, the polymerization reaction mix contained the other three dNTPs in large excess. The double-stranded DNA product is detected by the EvaGreen Dye. The 2X master mix for the DNA synthesis reaction contained the following: 0.275 μM primer (Merck KGaA, Darmstadt, Germany), 0.25 μM template (IDT, Coralville, Iowa, USA), 50 μM dNTP mix (excluding the dNTP to be measured in the given experiment to limit its source to the sample), and 1.25 μM EvaGreen (Biotium). […] Fluorescence amplitude data were extracted from the Bio-Rad CFX Maestro Software and analyzed using Excel and Origin. […]

For assay [3], the system named is MES-SA/Dx5 cells. As to the kind of experiment: Intracellular ROS generation, DCF-DA assay, MES-SA/Dx5. The assay is classed as cell-based, human. The following applies: 25 μM, 4 h treatment. As for the experimental part:
ROS accumulation was evaluated in both the MES-SA and MES-SA/Dx5 cell lines by using 2′,7′-dichlorodihydrofluorescein diacetate (H2DCF-DA) as a probe. This compound enters the cells by passive diffusion, and after oxidation, it is converted to the highly fluorescent 2′,7′-dichlorofluorescein (DCF), enabling the estimation of intracellular ROS levels. ROS generation was measured after a 4 h treatment with 25 μM H2L^6 or 6; tert-butylhydroperoxide (TBHP, 25 μM) was used as a positive control.
Figure 6 Intracellular ROS generation measured by the DCF-DA assay in MES-SA (filled bars) and MES-SA/Dx5 (lattice bars) cells, after a 4 h treatment with the indicated compounds at 25 μM: H2L^6 (gray), complex 6 (yellow), Triapine (green), and TBHP (brown). Values indicate fold change relative to the fluorescence of the cells treated with fluorescent probe alone (orange bars), following normalization to the initial fluorescence at the beginning of the incubation. Paired t test to the medium control was calculated; […]; **P < 0.01. Values were calculated from at least three independent experiments.
The human uterine sarcoma cell lines MES-SA and the doxorubicin selected MES-SA-Dx5 were obtained from ATCC (MES-SA: No. CRL-1976, MES-SA/Dx5: No. CRL-1977) and were used for the intracellular ROS generation studies. […]

In the case of `Cc1cc(NC(=NN=Cc2cccc(CN3CCOCC3)n2)[S][Cu][Cl])cc(C)c1O` [complex 6, [Cu(HL^6)Cl]·H2O], the results for the “inhibition of colchicine binding % inhibition ± SD” value in assay [1] (5 μM inhibitor) and in assay [1] (25 μM inhibitor) were 5.8 ± 5% and 33 ± 2%, respectively. The “fold less potent than CA-4 in inhibiting [3H]colchicine binding” value in assay [1] (at the 5 μM concentration) is given as 17 fold. Further, the “dATP and dTTP levels” value in assay [2] is “marked decrease”. Further, the “Intracellular ROS generation” value in assay [3] is on record as “significant ROS induction”.
